Assay results published in patent publication US20250084074A1, “SUBSTITUTED HETEROCYCLES AS HSET INHIBITORS” (MERCK PATENT GMBH, priority 2022, published 2025).
Where a name gives a salt, the structure may show the parent alone.

Biological target: HSET full length protein (Homo sapiens (Human), UniProt Q9BW19)
Assay: HSET ADP-Glo Assay S - 3 μM ATP
Assay type: biochemical
Conditions: 5 nM HSET, 70 μg/mL microtubule, 80 min at rt, read-out: COMBINED HSET ADP GLO IC50
How it was run: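 Full-length human HSET (5 nM) with paclitaxel-stabilised bovine brain microtubules (70 μg/mL) in HEPES pH 6.8 buffer was preincubated 10 min with compound. ATP at 3 μM started the reaction, which ran 80 min at rt. ADP formed was measured by ADP-Glo luminescence.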

HSET full length protein, sequence (Q9BW19 whole entry): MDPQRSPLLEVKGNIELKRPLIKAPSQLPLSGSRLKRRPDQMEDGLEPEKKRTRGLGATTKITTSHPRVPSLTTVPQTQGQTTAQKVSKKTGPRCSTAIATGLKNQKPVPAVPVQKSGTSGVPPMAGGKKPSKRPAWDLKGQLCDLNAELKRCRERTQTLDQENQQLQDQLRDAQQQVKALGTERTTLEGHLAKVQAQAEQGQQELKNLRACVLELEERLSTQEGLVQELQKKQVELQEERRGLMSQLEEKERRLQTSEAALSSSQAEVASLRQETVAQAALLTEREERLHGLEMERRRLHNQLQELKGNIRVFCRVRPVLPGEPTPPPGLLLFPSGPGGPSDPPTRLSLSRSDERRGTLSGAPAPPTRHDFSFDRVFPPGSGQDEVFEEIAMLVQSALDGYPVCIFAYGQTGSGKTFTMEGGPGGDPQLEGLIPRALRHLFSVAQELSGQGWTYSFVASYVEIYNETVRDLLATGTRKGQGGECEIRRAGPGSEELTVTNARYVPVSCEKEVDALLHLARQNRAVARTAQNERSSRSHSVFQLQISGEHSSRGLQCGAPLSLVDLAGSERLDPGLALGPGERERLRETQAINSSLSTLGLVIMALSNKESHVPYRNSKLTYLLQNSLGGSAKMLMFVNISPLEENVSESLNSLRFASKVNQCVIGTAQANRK

SMILES | IC50
Cc1nc(-c2cccc(C(=O)N[C@@H](CC#N)CC(=O)N(C)c3nc(C)c(C(=O)OC(C)C)s3)c2)no1 [Example 199, Propan-2-yl 2-[(3S)-4-cyano-N-methyl-3-{[3-(5-methyl-1,2,4-oxadiazol-3-yl)phenyl]-formamido}butanamido]-4-methyl-1,3-thiazole-5-carboxylate] | 10 nM
Cc1nc(-c2cccc(C(=O)N[C@H](CC#N)CC(=O)N(C)c3nc(C)c(C(=O)OC(C)C)s3)c2)no1 [Example 200, Propan-2-yl 2-[(3R)-4-cyano-N-methyl-3-{[3-(5-methyl-1,2,4-oxadiazol-3-yl)phenyl]-formamido}butanamido]-4-methyl-1,3-thiazole-5-carboxylate] | 295 nM
Cc1nc(NC(=O)C[C@H](CC#N)NC(=O)c2cccc(-c3cnn(C)c3)c2)sc1C(=O)OC(C)(C)C [Example 201] | 410 nM
Cc1nc(NC(=O)C[C@@H](CC#N)NC(=O)c2cccc(-c3cnn(C)c3)c2)sc1C(=O)OC(C)(C)C [Example 202] | 8850 nM
Cc1nc(NC(=O)C[C@H](CC#N)NC(=O)c2cccc(-c3cnn(C)c3)c2)sc1C(=O)OC(C)C [Example 203] | 1100 nM
Cc1nc(NC(=O)C[C@@H](CC#N)NC(=O)c2cccc(-c3cnn(C)c3)c2)sc1C(=O)OC(C)C [Example 204] | 5700 nM
Cc1nc(N(C)C(=O)C[C@H](CC#N)NC(=O)c2cccc(-c3cnn(C)c3)c2)sc1C(=O)OC(C)C [Example 205] | 4400 nM
Cc1nc(N(C)C(=O)C[C@@H](CC#N)NC(=O)c2cccc(-c3cnn(C)c3)c2)sc1C(=O)OC(C)C [Example 206] | 9300 nM
Cc1nc(NC(=O)C[C@H](CC#N)NC(=O)c2cccc(C#N)c2)sc1C(=O)OC(C)C [Example 207, Propan-2-yl 2-[(3S)-4-cyano-3-[(3-cyanophenyl)formamido]butan-amido]-4-methyl-1,3-thiazole-5-carboxylate] | 590 nM
Cc1nc(NC(=O)C[C@H](CC#N)Nc2nccc3ccc(C#N)cc23)sc1C(=O)OC(C)C [Example 208, Propan-2-yl 2-[(3S)-4-cyano-3-[(7-cyanoisoquinolin-1-yl)amino]butan-amido]-4-methyl-1,3-thiazole-5-carboxylate] | 79 nM
Cc1nc(NC(=O)C[C@@H](CC#N)Nc2nccc3ccc(C#N)cc23)sc1C(=O)OC(C)C [Example 209, Propan-2-yl 2-[(3R)-4-cyano-3-[(7-cyanoisoquinolin-1-yl)amino]butan-amido]-4-methyl-1,3-thiazole-5-carboxylate] | 4000 nM
Cc1nc(NC(=O)C[C@H](CC#N)Nc2nccc3ccc(-c4cnn(C)c4)cc23)sc1C(=O)OC(C)C [Example 210, Propan-2-yl 2-[(3S)-4-cyano-3-{[7-(1-methyl-1 H-pyrazol-4-yl)isoquinolin-1-yl]amino}butanamido]-4-methyl-1,3-thiazole-5-carboxylate] | 700 nM
Cc1nc(NC(=O)C[C@H](CC#N)NC(=O)c2cccc(-c3cnn(C)c3)n2)sc1C(=O)OC(C)(C)C [Example 211, tert-Butyl 2-[(3S)-4-cyano-3-{[6-(1-methyl-1 H-pyrazol-4-yl)pyridin-2-yl]formamido}butanamido]-4-methyl-1,3-thiazole-5-carboxylate] | 1300 nM
Cc1nc(NC(=O)C[C@@H](CC#N)NC(=O)c2cccc(-c3cnn(C)c3)n2)sc1C(=O)OC(C)(C)C [Example 212, tert-Butyl 2-[(3R)-4-cyano-3-{[6-(1-methyl-1 H-pyrazol-4-yl)pyridin-2-yl]formamido}butanamido]-4-methyl-1,3-thiazole-5-carboxylate] | 3350 nM
Cc1nc(NC(=O)C[C@H](CC#N)NC(=O)c2cccc(-c3cnn(C)c3)n2)sc1C(=O)OC(C)C [Example 213, Propan-2-yl 2-[(3S)-4-cyano-3-{[6-(1-methyl-1 H-pyrazol-4-yl)pyridin-2-yl]formamido}butanamido]-4-methyl-1,3-thiazole-5-carboxylate] | 1700 nM
Cc1nc(NC(=O)C[C@@H](CC#N)NC(=O)c2cccc(-c3cnn(C)c3)n2)sc1C(=O)OC(C)C [Example 214] | 2400 nM
CCOC(=O)c1sc(NC(=O)CC(CC)NC(=O)c2cccc(-c3noc(C)n3)c2)nc1C (stereo not drawn) [Example 215] | 84 nM

Results, then the compound that gave them:

IC50 | SMILES
1700 nM | COC(=O)c1sc(NC(=O)C[C@H](CC(=O)O)NC(=O)c2cccc(-c3noc(C)n3)c2)nc1C [Example 216, (3R)-4-{[5-(methoxycarbonyl)-4-methyl-1,3-thiazol-2-yl]carbamoyl}-3-{[3-(5-methyl-1,2,4-oxadiazol-3-yl)phenyl]formamido}butanoic acid]
7300 nM | COC(=O)c1sc(N(C)C(=O)C[C@@H](CC(=O)O)NC(=O)c2cccc(-c3noc(C)n3)c2)nc1C [Example 217]
41 nM | CCN(c1nc(C)c(C(=O)OC(C)(C)C)s1)C(=O)[C@H]1C[C@@H](Nc2nccc3ccc(-c4noc(C)n4)cc23)C1 [Example 218, tert-Butyl 2-((1s,3s)-N-ethyl-3-((7-(5-methyl-1,2,4-oxadiazol-3-yl)isoquinolin-1-yl)amino)cyclobutanecarboxamido)-4-methylthiazole-5-carboxylate formate]
89 nM | CCOC(=O)c1sc(N(C)C(=O)CCNC(=O)c2cccc(-c3noc(C)n3)c2)nc1C [Example 219, Ethyl 4-methyl-2-(N-methyl-3-(3-(5-methyl-1,2,4-oxadiazol-3-yl)benzamido)propanamido)thiazole-5-carboxylate]
122 nM | CCCOC(=O)c1sc(C(=O)N[C@H]2C[C@@H](Nc3nccc4ccc(-c5noc(C)n5)cc34)C2)nc1C [Example 220, Propyl 4-methyl-2-(((1s,3s)-3-((7-(5-methyl-1,2,4-oxadiazol-3-yl)isoquinolin-1-yl)amino)cyclobutyl)carbamoyl)thiazole-5-carboxylate]
133 nM | Cc1nc(-c2ccc3ccnc(N[C@H]4C[C@@](O)(C(=O)Nc5nc(C)c(C(C)(C)C)s5)C4)c3c2)no1 [Example 221, (1 r,3r)-N-(5-(tert-butyl)-4-methylthiazol-2-yl)-1-hydroxy-3-((7-(5-methyl-1,2,4-oxadiazol-3-yl)isoquinolin-1-yl)amino)cyclobutane-1-carboxamide]
10 nM | Cc1nc(-c2ccc3ccnc(N[C@H]4C[C@@](F)(C(=O)Nc5nc(C)c(C(=O)OC(C)(C)C)s5)C4)c3c2)no1 [Example 222, tert-butyl 2-((1 r,3r)-1-fluoro-3-((7-(5-methyl-1,2,4-oxadiazol-3-yl)isoquinolin-1-yl)amino)cyclobutane-1-carboxamido)-4-methylthiazole-5-carboxylate]
219 nM | Cc1nc(-c2ccc3ccnc(N[C@H]4C[C@](F)(C(=O)Nc5nc(C)c(C(=O)OC(C)(C)C)s5)C4)c3c2)no1 [Example 223, tert-Butyl 2-((1s,3s)-1-fluoro-3-((7-(5-methyl-1,2,4-oxadiazol-3-yl)isoquinolin-1-yl)amino)cyclobutane-1-carboxamido)-4-methylthiazole-5-carboxylate]
270 nM | Cc1nc(-c2ccc3ccnc(N[C@H]4C[C@@](C)(C(=O)Nc5nc(C)c(C(=O)OC(C)(C)C)s5)C4)c3c2)no1 [Example 224, tert-Butyl 4-methyl-2-((1s,3s)-1-methyl-3-((7-(5-methyl-1,2,4-oxadiazol-3-yl)isoquinolin-1-yl)amino)cyclobutane-1-carboxamido)thiazole-5-carboxylate]
1660 nM | Cc1nc(-c2ccc3ccnc(N[C@@H]4CCN(C(=O)Nc5nc(C)c(C(=O)OC(C)(C)C)s5)C4)c3c2)no1 [Example 225, tert-Butyl 4-methyl-2-[[(3R)-3-[[7-(5-methyl-1,2,4-oxadiazol-3-yl)-1-isoquinolyl]amino]pyrrolidine-1-carbonyl]amino]thiazole-5-carboxylate]
12 nM | Cc1nc(-c2ccc3ccnc(N[C@H]4CCN(C(=O)Nc5nc(C)c(C(=O)OC(C)(C)C)s5)C4)c3c2)no1 [Example 226, tert-Butyl 4-methyl-2-[[(3S)-3-[[7-(5-methyl-1,2,4-oxadiazol-3-yl)-1-isoquinolyl]amino]pyrrolidine-1-carbonyl]amino]thiazole-5-carboxylate]
88 nM | Cc1nc(-c2ccc3ccnc(N[C@H]4CCN(C(=O)N(C)c5nc(C)c(C(=O)OC(C)(C)C)s5)C4)c3c2)no1 [Example 227, tert-Butyl 4-methyl-2-[methyl-[(3S)-3-[[7-(5-methyl-1,2,4-oxadiazol-3-yl)-1-isoquinolyl]amino]pyrrolidine-1-carbonyl]amino]thiazole-5-carboxylate]
86 nM | Cc1nc(-c2cccc(C(=O)NC3CN(C(=O)Nc4nc(C)c(C(=O)OC(C)(C)C)s4)C3)c2)no1 [Example 228, tert-Butyl 4-methyl-2-[[3-[[3-(5-methyl-1,2,4-oxadiazol-3-yl)benzoyl]amino]azetidine-1-carbonyl]amino]thiazole-5-carboxylate]
52 nM | Cc1nc(-c2cccc(C(=O)NC3CN(C(=O)N(C)c4nc(C)c(C(=O)OC(C)(C)C)s4)C3)c2)no1 [Example 229, tert-Butyl 4-methyl-2-[methyl-[3-[[3-(5-methyl-1,2,4-oxadiazol-3-yl)benzoyl]amino]azetidine-1-carbonyl]amino]thiazole-5-carboxylate]
2 nM | Cc1nc(-c2ccc3ccnc(NC4CN(C(=O)Nc5nc(C)c(C(=O)OC(C)(C)C)s5)C4)c3c2)no1 [Example 230, tert-Butyl 4-methyl-2-[[3-[[7-(5-methyl-1,2,4-oxadiazol-3-yl)-1-isoquinolyl]amino]azetidine-1-carbonyl]amino]thiazole-5-carboxylate]
5 nM | Cc1nc(-c2ccc3ccnc(NC4CN(C(=O)N(C)c5nc(C)c(C(=O)OC(C)(C)C)s5)C4)c3c2)no1 [Example 231, tert-Butyl 4-methyl-2-[methyl-[3-[[7-(5-methyl-1,2,4-oxadiazol-3-yl)-1-isoquinolyl]amino]azetidine-1-carbonyl]amino]thiazole-5-carboxylate]
